Assay results published in PMC7618454, “Interleukin-1 receptor-associated kinase 4 (IRAK4) is a critical regulator of inflammatory signalling through toll-like receptors 4 and 7/8 in murine and human lungs” (British journal of pharmacology, 2024).

Key:
[1] = target: T1, interleukin-1 receptor-associated kinase 4 (IRAK4) (Homo sapiens, UniProt Q9NWZ3); experiment: IMAP fluorescence polarization kinase assay, […] ATP; format: biochemical
T1 construct: kinase domain, aa 153–460, N-terminal His6-tagged
T1 sequence (Q9NWZ3 153-460): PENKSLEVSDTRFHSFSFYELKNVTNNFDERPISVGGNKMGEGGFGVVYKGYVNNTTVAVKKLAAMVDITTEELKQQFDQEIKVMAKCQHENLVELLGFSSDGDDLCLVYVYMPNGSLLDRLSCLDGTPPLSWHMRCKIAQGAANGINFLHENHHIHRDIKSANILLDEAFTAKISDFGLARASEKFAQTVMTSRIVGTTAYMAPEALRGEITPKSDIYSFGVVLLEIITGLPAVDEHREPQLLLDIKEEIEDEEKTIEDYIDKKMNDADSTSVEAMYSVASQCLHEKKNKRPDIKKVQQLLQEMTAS

[2] = target: T2, interleukin-1 receptor-associated kinase 4 (IRAK4) (Mus musculus, UniProt Q8R4K2); experiment: IMAP fluorescence polarization kinase assay, […] ATP; format: biochemical
T2 construct: kinase domain, aa 153–459, N-terminal His6-tagged
T2 sequence (Q8R4K2 153-459): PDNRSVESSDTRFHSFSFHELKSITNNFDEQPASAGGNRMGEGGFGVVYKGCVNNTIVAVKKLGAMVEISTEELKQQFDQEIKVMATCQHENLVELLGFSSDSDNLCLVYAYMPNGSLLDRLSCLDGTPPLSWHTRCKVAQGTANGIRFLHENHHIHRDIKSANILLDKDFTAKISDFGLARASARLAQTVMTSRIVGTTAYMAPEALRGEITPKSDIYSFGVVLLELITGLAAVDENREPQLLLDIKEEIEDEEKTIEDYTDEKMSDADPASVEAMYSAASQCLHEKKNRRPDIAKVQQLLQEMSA

IC50 [1]: ~2 nM
IC50 [2]: ~2 nM
Substance: BI1543673
